Tested on: lymphocytes of control subjects (BPH)
Assay: FISH replication assay, lymphocytes of benign prostate hyperplasia (BPH) subjects grown with 5-azacytidine (Example 7)
Format: cell-based, human
Conditions: BPH samples; all tested loci; 10^-7M AZA
Procedure: Each sample was set up for short-term culturing in F10 medium supplemented with 20% fetal calf serum (FCS), 3% phytohemagglutinin (PHA), 0.2% heparin, and 1% antibiotics (a standard solution of penicillin and streptomycin). Cultures were incubated at 37° C. for 72 hours and then colchicine (final concentration 0.1 μg/ml) was added to the culture for one hour, followed by hypotonic treatment (0.075 M KC1 at 37° C. for 15 minutes) and four washes each with a fresh cold 3:1 methanol: acetic acid solution. The cell suspensions were stored at −20° C. until used for fluorescence in situ hybridization (FISH). […]
Slides were analyzed blindly on an Olympus BH2 fluorescent microscope, using a triple band-pass filter (Chroma technology). […] For each sample and for each treatment the frequency of SD, SS and DD cells out of the total population of cells containing two fluorescent signals was recorded (for details please see Dotan et al, Genes, Chromosomes & Cancer 27:270-277, 2000). For the determination of allelic losses at least 200 cells from the same preparation used for replication studied were analyzed for each tested sample.

Question: Which “effect of AZA on the SD values” does the source give for Nc1ncn([C@@H]2O[C@H](CO)[C@@H](O)[C@H]2O)c(=O)n1 [AZA, 5-azacytidine] here?
Answer: no significant effect

Reference: patent US6803195B1, “Facile detection of cancer and cancer risk based on level of coordination between alleles” (Ramot At Tel-Aviv University Ltd., priority 1999, dated 2004)
